In ChEMBL document CHEMBL1221319, “Synthesis and biological evaluation of vitamin K derivatives as angiogenesis inhibitor” (Bioorg Med Chem, 2010):
Activity calls are given as the source filed them. No cut-off for these calls is given here.

Legend:
Aorta [1] = test: Ex vivo antiangiogenic activity in Wistar rat aortic ring assessed as inhibition of angiogenesis at 100 uM after 7 days by phase-contrast microscopy; type: functional, tissue-based
Aorta [2] = test: Ex vivo antiangiogenic activity in Wistar rat aortic ring assessed as decrease of microvessel length at 100 uM after 7 days by phase-contrast microscopy; type: functional, tissue-based
Aorta [3] = test: Ex vivo antiangiogenic activity in Wistar rat aortic ring assessed as inhibition of angiogenesis at 50 uM after 7 days by phase-contrast microscopy; type: functional
Aorta [4] = test: Ex vivo antiangiogenic activity in Wistar rat aortic ring assessed as inhibition of angiogenesis after 7 days by phase-contrast microscopy; type: functional, tissue-based
HUVEC [5] = test: Antiangiogenic activity in HUVEC assessed as reduction of tube formation at 100 uM after 12 hrs by phase-contrast microscopy; type: functional, cell-based; settings: Homo sapiens
HUVEC [6] = test: Inhibition of VEGF-induced HUVEC migration at 100 uM after 6 hrs by gelatin-coated Boyden chamber assay; type: functional, cell-based; settings: Homo sapiens
HUVEC [7] = test: Antiproliferative activity against HUVEC at 5 to 100 uM after 72 hrs by WST-1 assay; type: functional, cell-based; settings: Homo sapiens
HCT-116 = test: Cytotoxicity against human HCT116 cells; type: functional
[8] = Cytotoxicity against HDF; settings: human

## CCCCCCCC1=C(C)C(=O)c2ccccc2C1=O
Aorta [1]
  Activity: inactive
Aorta [2]
  Activity: inactive

## CNC1=C(C)C(=O)c2ccccc2C1=O
Aorta [1]
  Activity: Active

## CC1=C(C2=C(C)C(=O)c3ccccc3C2=O)C(=O)c2ccccc2C1=O
Aorta [1]
  Activity: inactive

## CCCCC1=C(C)C(=O)c2ccccc2C1=O
Aorta [1]
  Activity: inactive
Aorta [2]
  Activity: Active

## CCCCCCCCCCC1=C(C)C(=O)c2ccccc2C1=O
Aorta [1]
  Activity: inactive
Aorta [2]
  Activity: inactive

## CCCNC1=C(C)C(=O)c2ccccc2C1=O
Aorta [3]
  Activity: >50 µM
Aorta [1]
  Activity: Active
Aorta [2]
  Activity: Active
Aorta [4]
  Activity: Dose-dependent effect
HUVEC [5]
  Activity: Active
HUVEC [6]
  inhibition: inactive
HUVEC [7]
  Activity: Active
HCT-116
  Activity: >100 µM
[8]
  Activity: > 100 µM

## CC1=C(Br)C(=O)c2ccccc2C1=O
Aorta [1]
  Activity: Active

## CCC1=C(C)C(=O)c2ccccc2C1=O
Aorta [1]
  Activity: Active

## CCCCCCNC1=C(C)C(=O)c2ccccc2C1=O
Aorta [1]
  Activity: inactive
Aorta [2]
  Activity: inactive

## CCCCCCCCCNC1=C(C)C(=O)c2ccccc2C1=O
Aorta [1]
  Activity: inactive
Aorta [2]
  Activity: inactive
